Literature values in patent US20230321241A1, “CANCER PEPTIDE VACCINE AND METHOD OF PREPARING THE SAME” (BrightPath Biotherapeutics Co., Ltd., priority 2020, published 2023).

System: PD-L1-Positive Non-Small-Cell Lung Cancer
Conditions: pembrolizumab alone in similar subjects; cited from earlier work

## pembrolizumab: anti-PD-1 antibody (Merck & Co., Inc.)
  response rate: 45%
